Legend:
Experiment in all cases: NCI-60 panel growth inhibition
Type in all cases: cell-based
[1] = system: EKVX; settings: Homo sapiens, NSC Lung Cancer, mutated RAS No, mutated BRAF No
From the text: (§1) Table 1 summarizes KG5's effect in 60 NCI cancer cell lines: the NCI-60 panel showing the half maximal growth inhibitory concentration of KG5 and the RAS and BRAF status in 60 human cancer cell lines.

[2] = system: 786-0; settings: Homo sapiens, Renal Cancer, mutated RAS No, mutated BRAF No
From the text: as §1

[3] = system: SF-295; settings: Homo sapiens, CNS Cancer, mutated RAS No, mutated BRAF No
From the text: as §1

[4] = system: U251; settings: Homo sapiens, U-251; CNS Cancer; mutated RAS No; mutated BRAF No
From the text: as §1

[5] = system: SK-MEL-5; settings: Homo sapiens, Melanoma, mutated RAS No, mutated BRAF Yes
From the text: as §1

[6] = system: UACC-257; settings: Homo sapiens, Melanoma, mutated RAS No, mutated BRAF Yes
From the text: as §1

[7] = system: SR; settings: Homo sapiens, Leukemia, mutated RAS No, mutated BRAF No
From the text: as §1

[8] = system: K-562; settings: Homo sapiens, K562; Leukemia; mutated RAS No; mutated BRAF No
From the text: as §1

[9] = system: CAKI-1; settings: Homo sapiens, Renal Cancer, mutated RAS No, mutated BRAF No
From the text: as §1

[10] = system: OVCAR-4; settings: Homo sapiens, Ovarian Cancer, mutated RAS No, mutated BRAF No
From the text: as §1

[11] = system: LOX IMVI; settings: Homo sapiens, Melanoma, mutated RAS No, mutated BRAF Yes
From the text: as §1

[12] = system: SF-268; settings: Homo sapiens, CNS Cancer, mutated RAS No, mutated BRAF No
From the text: as §1

[13] = system: SW-620; settings: Homo sapiens, Colon Cancer, mutated RAS No, mutated BRAF No
From the text: as §1

[14] = system: NCI/ADR-RES; settings: Homo sapiens, Ovarian Cancer, mutated RAS No, mutated BRAF No
From the text: as §1

[15] = system: HOP-62; settings: Homo sapiens, NSC Lung Cancer, mutated RAS Yes, mutated BRAF No
From the text: as §1

[16] = system: MDA-MB-231/ATCC; settings: Homo sapiens, Breast Cancer, mutated RAS Yes, mutated BRAF Yes
From the text: as §1

[17] = system: NCI-H226; settings: Homo sapiens, NSC Lung Cancer, mutated RAS No, mutated BRAF No
From the text: as §1

[18] = system: NCI-H322M; settings: Homo sapiens, NSC Lung Cancer, mutated RAS No, mutated BRAF No
From the text: as §1

[19] = system: ACHN; settings: Homo sapiens, Renal Cancer, mutated RAS No, mutated BRAF No
From the text: as §1

[20] = system: NCI-H460; settings: Homo sapiens, NSC Lung Cancer, mutated RAS Yes, mutated BRAF No
From the text: as §1

[21] = system: HCT-116; settings: Homo sapiens, Colon Cancer, mutated RAS Yes
From the text: as §1

[22] = system: BT-549; settings: Homo sapiens, Breast Cancer, mutated RAS No, mutated BRAF No
From the text: as §1

[23] = system: KM12; settings: Homo sapiens, Colon Cancer, mutated RAS No, mutated BRAF No
From the text: as §1

[24] = system: MALME-3M; settings: Homo sapiens, Melanoma, mutated RAS No, mutated BRAF Yes
From the text: as §1

[25] = system: IGROV1; settings: Homo sapiens, IGROV-1; Ovarian Cancer; mutated RAS No; mutated BRAF No
From the text: as §1

[26] = system: UACC-62; settings: Homo sapiens, Melanoma, mutated RAS No, mutated BRAF Yes
From the text: as §1

[27] = system: MOLT-4; settings: Homo sapiens, Leukemia, mutated RAS Yes, mutated BRAF No
From the text: as §1

[28] = system: M14; settings: Homo sapiens, Melanoma, mutated RAS No, mutated BRAF Yes
From the text: as §1

[29] = system: UO-31; settings: Homo sapiens, Renal Cancer, mutated RAS No, mutated BRAF No
From the text: as §1

[30] = system: COLO 205; settings: Homo sapiens, Colon Cancer, mutated RAS Yes, mutated BRAF No
From the text: as §1

[31] = system: SK-MEL-2; settings: Homo sapiens, Melanoma, mutated RAS Yes, mutated BRAF No
From the text: as §1

[32] = system: OVCAR-3; settings: Homo sapiens, Ovarian Cancer, mutated RAS No, mutated BRAF No
From the text: as §1

[33] = system: A498; settings: Homo sapiens, Renal Cancer, mutated RAS No, mutated BRAF No
From the text: as §1

[34] = system: SN12C; settings: Homo sapiens, Renal Cancer, mutated RAS No, mutated BRAF No
From the text: as §1

[35] = system: MDA-MB-468; settings: Homo sapiens, Breast Cancer, mutated RAS No, mutated BRAF No
From the text: as §1

SMILES: CSc1nc(N)cc(Oc2ccc(-c3nnc(Nc4cccc(C(F)(F)F)c4)[nH]3)cc2)n1 [KG5]
- GI50 [1]: 501 nM
- GI50 [2]: 490 nM
- GI50 [3]: 427 nM
- GI50 [4]: 468 nM
- GI50 [5]: 389 nM
- GI50 [6]: 407 nM
- GI50 [7]: 398 nM
- GI50 [8]: 513 nM
- GI50 [9]: 417 nM
- GI50 [10]: 575 nM
- GI50 [11]: 851 nM
- GI50 [12]: 912 nM
- GI50 [13]: 617 nM
- GI50 [14]: 437 nM
- GI50 [15]: 589 nM
- GI50 [16]: 1480 nM
- GI50 [17]: 1780 nM
- GI50 [18]: 525 nM
- GI50 [19]: 851 nM
- GI50 [20]: 363 nM
- GI50 [21]: 457 nM
- GI50 [22]: 708 nM
- GI50 [23]: 468 nM
- GI50 [24]: 316 nM
- GI50 [25]: 447 nM
- GI50 [26]: 501 nM
- GI50 [27]: 912 nM
- GI50 [28]: 347 nM
- GI50 [29]: 513 nM
- GI50 [30]: 407 nM
- GI50 [31]: 589 nM
- GI50 [32]: 251 nM
- GI50 [33]: 468 nM
- GI50 [34]: 912 nM
- GI50 [35]: 191 nM
